Measurements taken from patent US20110275721A1, “METHOD FOR THE PURIFICATION OF SUBSTITUTED CYCLOPENT-2-EN-1-ONE CONGENERS AND SUBSTITUTED 1,3-CYCLOPENTADIONE CONGENERS FROM A COMPLEX MIXTURE USING COUNTERCURRENT SEPARATION” (Metaproteomics, LLC, priority 2008, published 2011).

Experiment: Shake-flask liquid distribution ratio (Kd), Hexane:Water:Buffer of 10:9:1
Assay type: physicochemical
Conditions: THIAA Aug. 5, 2008
Method: Several shake-flask experiments were conducted to test several solvent systems and determine the liquid distribution ratio (Kd) and partition coefficient values for optimal separations. Partition coefficient values derived from shake-flask experiments are a reliable predictor of countercurrent chromatographic behavior. Kd is the concentration of the analyte in the upper phase divided by the concentration of the analyte in the lower phase and, in the alternative, may be listed as Ku/l.
General Procedure and Parameters for Shake Flask Experiments: Addition of 1 mL of the stock buffer at a known pH. Addition of the other necessary solvents to make up the system. Addition of the analyte mixture dissolved in hexane at 400 mg/mL. Final analyte concentration in the shake flask is 0.1 mg/mL. The flask was capped and mixed (by a vortex mixer) for 10 seconds. An aliquot was taken from the upper phase for HPLC analysis, and additionally a separate aliquot was taken from the lower phase for HPLC analysis from each flask. Each component was analyzed by HPLC and integrated using Shimadzu Class VP Software version 7.3 SP1.

Row | Structure (SMILES) | K Value (pH 4.9) | K Value (pH 5.5) | K Value (pH 5.6) | K Value (pH 6.0)
1 | CCC(C)C(=O)C1=C(O)C(O)(C(=O)CCC(C)C)C(CCC(C)C)C1=O (stereo not drawn) [TH 3, trans tetra ad-isoalpha acid] | 60.3 | 17.8 | 11.4 | 5.5
2 | CC(C)CCC(=O)[C@]1(O)C(O)=C(C(=O)C(C)C)C(=O)[C@H]1CCC(C)C [TH 1, (+)-(4R,5S)-3,4-dihydroxy-2-isobutyryl-5-(3-methylbutyl)-4-(4-methylpentanoyl)cyclopent-2-en-1-one] | 16.5 | 4.2 | 3.0 | 1.5
3 | CC(C)CCC(=O)[C@@]1(O)C(O)=C(C(=O)C(C)C)C(=O)[C@H]1CCC(C)C [TH 2, (−)-(4S,5S)-3,4-dihydroxy-2-isobutyryl-5-(3-methylbutyl)-4-(4-methylpentanoyl)cyclopent-2-en-1-one] | 10.8 | 2.5 | 1.8 | 0.9

Continued, values first:

Row | K Value (pH 4.9) | K Value (pH 5.5) | K Value (pH 5.6) | K Value (pH 6.0) | Structure (SMILES)
4 | 55.6 | 16.1 | 11.0 | 5.5 | CCC(C)C(=O)C1=C(O)[C@@](O)(C(=O)CCC(C)C)[C@H](CCC(C)C)C1=O (single isomer, unassigned; (+)) [TH 4]
5 | 32.8 | 9.5 | 6.6 | 3.3 | CC(C)CCC(=O)[C@]1(O)C(O)=C(C(=O)CC(C)C)C(=O)[C@H]1CCC(C)C [TH 5, (+)-(4R,5S)-3,4-dihydroxy-2-(3-methylbutanoyl)-5-(3-methylbutyl)-4-(4-methylpentanoyl)cyclopent-2-en-1-one]
